Patent US9119858B2, “Compositions and methods for treating or preventing anthracycline induced cardiotoxicity” (Genesys Research Institute, priority 2012, dated 2015)
Like-named read-outs stand apart in the source and are kept apart here.

Columns and labels:
[1] = system: doxorubicin treated mice; assay: Hemodynamic measurements (dP/dtmax, dP/dtmin) in doxorubicin and doxorubicin+lapatinib treated mice; details: FIG. 4
Experimental: (§2) Female FVB/n mice between 10 and 12 weeks old were treated with doxorubicin (2 mg/kg) by intraperitoneal injection (i.p.) twice a week for 7 weeks. […] After completion of the doxorubicin treatment cycle, the mice were subsequently treated with various doses of lapatinib (25, 50, and 100 mg/kg, given by oral gavage, daily) or with vehicle control.
(§3) Cardiac function of the doxorubicin and doxorubicin+lapatinib treated mice was evaluated by echocardiography.

[2] = system: doxorubicin treated mice; assay: Echocardiography of doxorubicin and doxorubicin+lapatinib treated mice; details: FIG. 3
Experimental: as §2, §3

[3] = system: doxorubicin injured mice; details: ten weeks after initiation of doxorubicin treatment
Experimental: (§1) After the completion of doxorubicin treatment, mice were subsequently treated with either Lapatinib alone (100 mg/kg, oral gavage, daily) or Rapamycin alone (6 mg/kg, i.p., daily). Survival was monitored. Cardiac function was assessed by hemodynamic measurements.

[4] = system: doxorubicin+BEZ235 treated mice; assay: Echocardiography and heart/lung weight ratios in mice co-treated with doxorubicin, BEZ235 and lapatinib; details: lapatinib co-treatment of doxorubicin+BEZ235 treated mice; FIG. 6
Experimental: FVB/n female mice were treated with doxorubicin (2 mg/kg, i.p.) twice a week, PI3 kinase-mTOR inhibitor BEZ235 (35-50 mg/kg, oral, daily) and lapatinib (25, 50 or 100 mg/kg, oral, daily). Cardiac function was monitored by echocardiography.

[5] = system: doxorubicin treated mice
[6] = system: doxorubicin injured mice; assay: Cardiac output by hemodynamic measurements in doxorubicin injured mice treated with Lapatinib or Rapamycin; format: in vivo
Experimental: as §1

[7] = doxorubicin+lapatinib treated vs control mice
[8] = three weeks after initiation of lapatinib treatment, doxorubicin+lapatinib vs doxorubicin treated mice
[9] = doxorubicin treated vs. control mice
[10] = nine weeks after initiation of doxorubicin treatment, doxorubicin treated versus control mice

CS(=O)(=O)CCNCc1ccc(-c2ccc3ncnc(Nc4ccc(OCc5cccc(F)c5)c(Cl)c4)c3c2)o1 [lapatinib, N-[3-chloro-4-[(3-fluorophenyl)methoxy]phenyl]-6-[5-[(2-methylsulfonylethylamino)methyl]-2-furyl]quinazolin-4-amine]
dP/dtmax [1, 7]: not different | dP/dtmin [1, 7]: not different | EF % [2, 8]: reversed these effects | ESV [2, 8]: reversed these effects | survival ([3]; Lapatinib 100 mg/kg oral gavage daily after doxorubicin): 71% | EF % [4]: reversed these effects | end-diastolic volume (EDV) [4]: reversed these effects | end-systolic volume (ESV) [4]: reversed these effects | heart weight to body weight ratio (HW/BW) [4]: reversed these effects | lung to body weight ratio [4]: reversed these effects | relative wall thickness (RWth) [4]: reversed these effects | survival ([5]; 64 days after initiation of doxorubicin treatment, lapatinib 25 mg/kg oral gavage daily after the doxorubicin cycle): 100% | survival ([5]; 64 days after initiation of doxorubicin treatment, lapatinib 50 mg/kg oral gavage daily after the doxorubicin cycle): 83% | survival ([5]; 64 days after initiation of doxorubicin treatment, lapatinib 100 mg/kg oral gavage daily after the doxorubicin cycle): 71% | survival ([5]; 70 days after initiation of doxorubicin treatment, lapatinib 100 mg/kg oral gavage daily after the doxorubicin cycle): 55% | survival of doxorubicin treated mice (FIG. 1) ([5]; lapatinib 25, 50 and 100 mg/kg oral gavage daily vs vehicle control): improved survival | cardiac output ([6]; Lapatinib (100 mg/kg oral daily) treated doxorubicin injured mice vs. non-treated control mice): No difference

CO[C@H]1C[C@@H]2CC[C@@H](C)[C@@](O)(O2)C(=O)C(=O)N2CCCC[C@H]2C(=O)O[C@H]([C@H](C)C[C@@H]2CC[C@@H](O)[C@H](OC)C2)CC(=O)[C@H](C)/C=C(\C)[C@@H](O)[C@@H](OC)C(=O)[C@H](C)C[C@H](C)/C=C/C=C/C=C/1C [Rapamycin]
survival ([3]; Rapamycin 6 mg/kg i.p. daily after doxorubicin): 63%

COc1cccc2c1C(=O)c1c(O)c3c(c(O)c1C2=O)C[C@@](O)(C(=O)CO)C[C@@H]3O[C@H]1C[C@H](N)[C@H](O)[C@H](C)O1 [doxorubicin]
dP/dtmax [1, 9]: significantly decreased | dP/dtmin [1, 9]: significantly decreased | EF % [2, 10]: decreased | ESV [2, 10]: significantly increased | survival ([3]; Solvent treated doxorubicin injured mice (doxorubicin 2 mg/kg i.p. twice a week for 7 weeks)): 43% | survival ([5]; 64 days after initiation of doxorubicin treatment, doxorubicin 2 mg/kg i.p. twice a week for 7 weeks, then vehicle control, female FVB/n mice): 68% | survival ([5]; 70 days after initiation of doxorubicin treatment, doxorubicin 2 mg/kg i.p. twice a week for 7 weeks, then vehicle control): 34% | cardiac output ([6]; Solvent treated doxorubicin injured mice vs. non-treated control mice, ten weeks): significantly decreased
